# Results: US20190224251A1, “METHODS OF DIFFERENTIATING STEM CELLS INTO ENDODERM” (MEMORIAL SLOAN-KETTERING CANCER CENTER, priority 2016, published 2019)
# Entries after “also recorded” stand apart in the source; their conditions may differ.
# Experiments:
# HUES8 SOX17GFP/+ cells = experiment: Definitive endoderm (DE) differentiation, flow cytometry of SOX17-GFP reporter; format: cell-based, human; settings: for formation of SOX17+ endoderm cells: Activin A and CHIR-99021 treatment, efficiency sensitive to dosages
# Procedure: (§1) Human ES or iPS cells were cultured in E8 medium and routinely passed by EDTA. When cells reach to 80-90% confluences, cells were treated with TrpLE Select and get single cell for passaging. Typically, 0.15 millions human ES or iPS cells were plated in one well of the six-well plates with ROCK inhibitor 10 uM in 2 ML E8 media. For the H1 line, it was typically plated 0.1 million cells to accommodate the higher proliferation rate. Twenty-four hours later, cells were washed with PBS once and add Day0 media (Advanced RPMI (Thermo Fisher Scientific, 12633012) with penicillin/streptomycin (Thermo Fisher Scientific, 15070063), GlutaMAX (Thermo Fisher Scientific, 35050079), 0.003% BSA (Thermo Fisher Scientific, 15260037), […] CHIR-99021 (Tocris, 4423) and 100 ng/ml Activin A (PeperoTech, 12014E)). Over the next 2 days, cells were changed to Day2 media (Advanced RPMI with penicillin/streptomycin, GlutaMAX, 0.2% FBS and 100 ng/ml Activin A). […] JNK inhibitor JNK-IN-8 (Selleckchem, S4901) was used during differentiation when indicated. Routinely, around 60-80% SOX17+ cells were obtained in 3 days.
# Cells were dissociated using TrypLE Select and resuspended in FACS buffer (5% FBS, 5 mM EDTA in PBS). First, cells were stained with surface antibody (CXCR4-APC) with LIVE/DEAD violet dye (Molecular Probe, L34955, 1:1,000) for 30 minutes at 4° C. After washing, […] After washing with FACS buffer, cells were fixed and permeabilized in 1× fixation/permeabilization buffer (eBioscience, 00-5523-00) for 30 minutes at 4° C. After fixation and permeabilization, cells were stained with intracellular conjugated antibody (SOX17-PE, GATA6-PE, GATA4-Alexa-647) in permeabilization buffer (eBioscience, 00-5523-00) for 30 minutes at 4° C. After washing with permeabilization buffer, cells were resuspended in FACS buffer, and samples were analyzed using BD LSRfortessa or BD LSRII. Flow cytometry analysis and figures were generated in Flowjo 10.
# [1] = test system: definitive endoderm (SOX17 and CXCR4 expression); experiment: Serum-free DE differentiation with JNK inhibition on the first day; format: cell-based, human; settings: one day of JNK inhibition, no serum
# Description: (§2) An improved protocol suitable for endoderm derivative lineage differentiation was developed. The improved protocol dispensed with the use of serum and inhibited JNK on the first day of definitive endoderm differentiation (FIG. 13A).
# [2] = test system: HUES6 ES cells, and BJ and CV iPS cells; experiment: Definitive endoderm differentiation in further ES and iPS cell lines, flow cytometry of SOX17; format: cell-based, human; settings: without inhibitor efficiency 60-80%
# Procedure: as §1
# (§3) Cells were dissociated using TrypLE Select and resuspended in FACS buffer (5% FBS, 5 mM EDTA in PBS). […] After washing with permeabilization buffer, cells were resuspended in FACS buffer, and samples were analyzed using BD LSRfortessa or BD LSRII. […]
# [3] = test system: NKX6.1 and PDX1 expressing pancreatic progenitor cells; experiment: Pancreatic progenitor differentiation after transient JNK inhibition during DE differentiation; format: cell-based, human; settings: flow cytometry and immunostaining
# Description: as §2
# [4] = test system: SOX17 and GATA6 enhancers; experiment: ChIP-qPCR of SMAD2/3 and JUN binding at the SOX17 and GATA6 enhancers; format: cell-based, human; settings: DE cells at Day 2
# Procedure: Definitive endoderm cells at Day 2 were collected for chromatin immunoprecipitation. Cells were cross-linked with 1% formaldehyde (Sigma, F1635) at 37° C. for 15 min and quenched with 0.125 M glycine for 5 min at room temperature. ChIP was performed as previously described 52. Samples were incubated with […] of antibody bound to […] Dynabeads protein G (Thermo Fisher Scientific, 1004D), then incubated overnight at 4° C. 2% pre-cleared chromatin prior to primary antibody addition was kept as input DNA. Magnetic beads were washed and chromatin was eluted, and reverse cross-linked ChIP DNA was dissolved in 10 mM Tris pH 8.0 buffer for further analysis. For ChIP-qPCR, immunoprecipitated DNA was analyzed by qPCR, and the amplification product was expressed as percentage of the 2% input.
# JUN phosphorylation = experiment: Western blot of JUN phosphorylation in DE cells; format: cell-based, human
# Procedure: (§4) Cell pellets were quickly snap frozen in liquid nitrogen and lysated in lysis buffer (Cell Signaling Technology, 9803) with proteinase/phosphatase inhibitors (Cell Signaling Technology, 5872) and 1 mm PMSF (MP Biomedicals, ICN19538105). Proteins were pre-cleared by centrifugation at 14,000 g 4° C. for 10 minutes. Protein concentration was determined by Bradford assay (Bio-Rad, 500-0202). Equal amounts of protein were loaded into Bis-Tris 10% gel (Novex, NP0301BOX) and transferred to nitrocellulose membranes (Novex, LC2001). Membranes were blocked with 5% milk (for non-phosphorylated proteins) or 5% BSA (for phosphorylated proteins). Primary antibody was incubated overnight at 4° C. Membranes were washed with TBST 3 times for 10 minutes each and incubated with secondary antibody for 1 hour at R.T. Membrane were washed with TBST 3 times for 10 minutes each. ECL western blotting detection reagents (Amersham, RPN2236 and Thermo Fisher Scientific, 32106) were used to visualize the protein bands.
# [5] = test system: C-terminal SMAD2 phosphorylation (Ser465/467) and JUN phosphorylation; experiment: Western blotting for signaling crosstalk between Nodal and JNK pathways; format: cell-based, human; settings: 15 minutes and 1 hour after initiating differentiation
# Procedure: as §4
# [6] = test system: DE cells differentiated from human ES cells; experiment: Endoderm differentiation in high or low Activin A condition, flow cytometry (CXCR4/SOX17, GATA6/GATA4) and RT-qPCR; format: cell-based; settings: either high or low Activin A condition
# Procedure: Human ES or iPS cells were cultured in E8 medium and routinely passed by EDTA. When cells reach to 80-90% confluences, cells were treated with TrpLE Select and get single cell for passaging. Typically, 0.15 millions human ES or iPS cells were plated in one well of the six-well plates with ROCK inhibitor 10 uM in 2 ML E8 media. For the H1 line, it was typically plated 0.1 million cells to accommodate the higher proliferation rate. […]
# as §3
# Cell pellets were lysed in TRIzol (Thermo Fisher Scientific, 15596018). […] Quantitative real-time PCR was performed in triplicate using ABsolute Blue QPCR SYBR Green Mix with low ROX (Thermo Scientific, #AB4322B) on the ABI PRISM® 7500 Real Time PCR System (Applied Biosystems) using the following protocol: 15 minutes at 95° C. followed by 40 cycles of 15 seconds at 95° C., 30 seconds at 58° C., and 30 seconds at 72° C. The signal was detected at 72° C.
# [7] = test system: NKX2.1 expressing lung progenitor cells; experiment: Lung progenitor differentiation after transient JNK inhibition during DE differentiation; format: cell-based, human; settings: flow cytometry
# Description: as §2
# H1 cell line = experiment: Definitive endoderm (DE) differentiation, flow cytometry of SOX17; format: cell-based, human
# Procedure: as §1, §3
molecule,measurement,setting,value
"Cc1c[nH]c(-c2cnc(NCCNc3ccc(C#N)cn3)nc2-c2ccc(Cl)cc2Cl)n1 [CHIR-99021, 6-(2-(4-(2,4-dichlorophenyl)-5-(4-methyl-1H-imidazol-2-yl)pyrimidin-2-ylamino)ethylamino)nicotinonitrile]",formation of SOX17+ endoderm cells,HUES8 SOX17GFP/+ cells,required
same,outcome of prolonged WNT activation,HUES8 SOX17GFP/+ cells; prolonged CHIR-99021 treatment,formation of CXCR4+SOX17− cells
Cc1cc(NC(=O)c2cccc(NC(=O)/C=C/CN(C)C)c2)ccc1Nc1nccc(-c2cccnc2)n1 [JNK-IN-8],induction of definitive endoderm (SOX17 and CXCR4 expression),[1],sufficient to induce differentiation of definitive endoderm
same,endoderm differentiation efficiency,[2],significantly improved
same,number of NKX6.1 and PDX1 expressing pancreatic progenitor cells,[3],significantly increased
same,binding of JUN to the SOX17 and GATA6 enhancers,[4],diminished
same,binding of SMAD2/3 to the SOX17 and GATA6 enhancers,[4],enhanced
same,phosphorylation of JUN (Western blot),"JUN phosphorylation; JNK-IN-8 1 μm, H1-derived DE cells at day 3",undetectable; also recorded: inhibition of JUN phosphorylation
same,total JUN level (Western blot),JUN phosphorylation; JNK-IN-8 treated cells,down-regulated
same,C-terminal SMAD2 phosphorylation (at Ser465/467),[5],did not change
same,JUN phosphorylation (Western blot),[5],inhibited
same,efficiency of endoderm differentiation based on flow cytometry,[6],greater than 90%
same,levels of endoderm gene expression from RT-qPCR,[6],increased
same,number of NKX2.1 expressing lung progenitor cells,[7],significantly increased
same,DE differentiation (SOX17+ cells),"H1 cell line; 1 μm JNK-IN-8, 3 days, H1, DMSO control ~66%",~96%
same,effect on DE differentiation at Day 2 versus Day 3,"H1 cell line; 1 μm JNK-IN-8, H1 and HUES8-SOX17GFP",stronger at Day 2
same,DE differentiation (SOX17GFP+ cells),"HUES8 SOX17GFP/+ cells; 1 μm JNK-IN-8, 3 days, HUES8-SOX17GFP, DMSO control ~79%",~98%
same,requirement for Activin A in Activin A dose titration,HUES8 SOX17GFP/+ cells; HUES8 SOX17GFP/+ cells,did not omit the requirement for Activin A
same,SOX17+ cells formed,"HUES8 SOX17GFP/+ cells; JNK-IN-8 with 20 ng/ml Activin A, HUES8 SOX17GFP/+ cells",~95%
NC(=O)c1ccc(-c2nc(-c3ccc4c(c3)OCO4)c(-c3ccccn3)[nH]2)cc1 [SB431542],C-terminal SMAD2 phosphorylation (at Ser465/467),[5],blocked
same,JUN phosphorylation (Western blot),[5],did not affect
"Activin A: TGF-β superfamily member that mimics the activity of Nodal (protein, UniProt P08476 311-426, looked up, Inhibin beta A chain) Inhibin beta A chain: GLECDGKVNICCKKQFFVSFKDIGWNDWIIAPSGYHANYCEGECPSHIAGTSGSSLSFHSTVINHYRMRGHSPFANLKSCCVPTKLRPMSMLYYDDGQNIIKKDIQNMIVEECGCS",C-terminal SMAD2 phosphorylation (at Ser465/467),[5],induces
same,formation of SOX17+ endoderm cells,HUES8 SOX17GFP/+ cells,required
